As a reminder, the inhibition is the share of the control response that was lost under treatment. Higher therefore signals strong suppression.

The source of these data is article PMC5620277, “The histone methyltransferase EZH2 as a druggable target in SHH medulloblastoma cancer stem cells” (Oncotarget, 2017).

One data set addresses PRMT1 (Homo sapiens, UniProt Q99873). The data set is described as follows: Methyltransferase panel: PRMT1. It counts as biochemical. Particulars: substrate histone H4. The protocol: (§1) MC3629 was tested in the cell free enzymatic assay (EZH2/PRC2) in 10-dose IC50 mode with 2-fold serial dilution starting from 400 μM solution, using various histone substrates (histone H3/H4 octamer, histone H3/H4 tetramer, histone H3, and core histone) and SAM as the co-substrate. […] (Figure 2B, and Supplementary Figure 2).
(§2) The appropriate methyltransferase (MT) substrate (0.05 mg/ml core histone for EZH1 complex, 0.05 mg/ml oligonucleosomes for DOT1L, 5 μM histone H3 (1-21) peptide for G9a, 0.05 mg/ml nucleosomes for MLL1 complex, 0.05 mg/ml core histone for SET7/9, 5 μM histone H4 for PRMT1, and 0.001 mg/ml poly(dI-dC) for DNMT1) was added in freshly prepared Reaction Buffer (50 mM Tris-HCl (pH 8.5), 5 mM MgCl2, 50 mM NaCl, 0.01% Brij35, 1 mM DTT, 1% DMSO). The MT enzyme was delivered into the substrate solution and the mixture was mixed gently. Afterwards, the tested compound dissolved in DMSO was delivered into the enzyme/substrate reaction mixture by using Acoustic Technology (Echo 550, LabCyte Inc. Sunnyvale, CA) in nanoliter range, and 1 μM ^3H-SAM was also added into the reaction mixture to initiate the reaction. The reaction mixture was incubated for 1 h at 30°C and then it was delivered to filter-paper for detection. The data were analyzed using Excel and GraphPad Prism software for IC50 curve fits (for EZH1 complex).

Data set [1] deals with hMB-SLCs. Briefly: Cell viability, MTS assay, hMB-SLCs. Type of data set: cell-based, human. The protocol:
In both cell lines, we determined the lowest useful dose of MC3629 (5 μM) and the minimum effective time (48 h) (Figure 2D, 2E and Supplementary Figure 4A and 4B for data at 24 and 72 h). We next evaluated the performance of MC3629 on MB-SLCs in terms of cell viability in regards to other EZH2i in use, confirming the dose selection (Supplementary Figure 4C).
(§3) To evaluate cell viability cells were plated at a density of 5×10^3 cells/well in 96-well plates and were incubated with MTS solution (CellTiter 96® AQueous One Solution Promega).

For data set [2], the system named is DAOY-SLCs. Briefly: Cell death (Trypan blue test) in DAOY-SLCs. It counts as cell-based. Particulars: 5 μM, 72 h. As for the experimental part: Trypan blue exclusion test was used to count viable or death cells present in a cell suspension. Each sample was measured in triplicate and repeated at least three times.
Data set [3] relates to hMB-SLCs. Briefly: Self-renewal, clonogenic assay, hMB-SLCs. It counts as cell-based, human. Particulars: 5 μM. The protocol:
(§4) For self-renewal assessment, clonogenic assay was performed as previously described. Briefly: oncospheres were disaggregated with non-enzymatic cell dissociation buffer (Sigma) and cells were plated at clonal density (1-2 cells/mm^2) into 96-well plates and cultured for an appropriate number of days (7-15) until oncospheres were countable.

In data set [4] the test system is H3K27me3 in cerebellum and brain. The data set is described as follows: H3K27me3 levels in cerebellum and brain of wild type mice after i.p. treatment. It counts as in vivo, mouse. As for the experimental part:
CD1 wild-type mice were treated intra-peritoneally with 20 μMoles/Kg of MC3629 (n=8 for each group). Treatment was performed at the age of 8 and 10 days post natal and mice were sacrificed at 12 days post natal. Brain and cerebellum tissues were collected for analysis.

A further data set has as its system mMB-SLCs. The data set is described as follows: Self-renewal, clonogenic assay, mMB-SLCs. Type of data set: cell-based, mouse. As to conditions: 5 μM. The protocol: as §4
Data set [5] relates to DAOY cells. The data set is described as follows: Cell viability, MTS assay, DAOY cells. It counts as cell-based. Particulars: 5 μM, after 48 h. As for the experimental part:
as §3
Background: Formazan colour is commonly taken as a measure of viable cells.

Another data set has as its target DOT1L (Homo sapiens, UniProt Q8TEK3). The data set is described as follows: Methyltransferase panel: DOT1L. Type of data set: biochemical. As to conditions: substrate nucleosomes. The protocol:
as §1, §2

The test system of data set [6] is hMB-SLCs. The data set is described as follows: Western Blot of H3K27me3, PCNA, cleaved caspase 3 in hMB-SLCs. Particulars: 5 μM, 48 h. It counts as cell-based, human. The protocol:
as §3
(§5) Western blots were performed according to standard procedures. Briefly, protein lysates were prepared using RIPA buffer with fresh protease inhibitors. Lysates were separated on SDS polyacrylamide gels. Proteins were transferred on nitrocellulose membrane (0.45 micron) (PerkinElmer). Membranes were blocked for 1 h at room temperature in 5% nonfat dry milk and incubated overnight at 4°C with antibodies against EZH2 (4905S Cell signaling), H3K27me3 (07-449 Millipore), PCNA (2586 Cell signaling), ACTIN (I-19 sc-1616; Santa Cruz Biotechnology), GAPDH (ab9484, Abcam), cleaved CSP-3 (D-175 9661S; Cell Signaling) and H3 (ab1971, Abcam). HRP-conjugated secondary antibodies (Santa Cruz Biotechnology) were used in combination with enhanced chemiluminescence (ECL Amersham).

The subject of data set [7] is DAOY-SLCs. Briefly: Western Blot of H3K27me3 and PCNA in DAOY-SLCs. Type of data set: cell-based. Particulars: 5 μM, 48 h. As for the experimental part: as §3, §5
For orientation: In western blotting, separated proteins are transferred to a membrane and probed.

The test system of data set [8] is DAOY cells. Briefly: Western Blot of H3K27me3 and PCNA in DAOY cells. Particulars: 5 μM, 48 h. It counts as cell-based. The protocol: as §3, §5
A short description of data set [9]: PAMPA-BBB (porcine brain lipid extract artificial membrane). It counts as in vitro ADME. As for the experimental part: Donor solution (500 μM or 250 μM) was prepared by diluting 10 or 5 mM DMSO compound stock solution using phosphate buffer (pH 7.4, 0.01 M). Filter membrane was coated with 5 μl of BBB-specific lipid solution prepared dissolving 16 mg of PBL (Avanti Lipids Polar, 141101P) in 600 μl of n-dodecane. Donor solution (150 μl) was added to each well of the filter plate. To each well of the acceptor plate 300 μl of solution (5% DMSO in phosphate buffer) were added. Each compound was tested in triplicate. The sandwich was incubated for 24 h at room temperature under gentle shaking. After the incubation time, the sandwich plates were separated and 250 μl of the acceptor plate were transferred to a UV quartz microtiter plate and measured by UV spectroscopy, using a Multiskan GO microplate spectrophotometer (Thermo Scientific) at 250−500 nm at step of 5 nm. Reference solutions (250 μl) were prepared diluting the sample stock solutions to the same concentration as that with no membrane barrier. The BBB permeability value Log Pe is determined applying the equation:
log Pe= log{C⋅(−ln(1−[drug]acceptor/[drug]equilibrium))},
where C=(VD⋅VA/(VD+VA)area⋅time)
In this equation, VA is the volume of the acceptor compartment (0.3 cm^3), VD is the donor volume (0.15 cm^3), area is the accessible filter area (0.24 cm^2), and time is the incubation time in seconds.
Background: PAMPA measures passive passage across an artificial lipid membrane.

PRMT1, sequence (Q99873 whole entry, species assumed): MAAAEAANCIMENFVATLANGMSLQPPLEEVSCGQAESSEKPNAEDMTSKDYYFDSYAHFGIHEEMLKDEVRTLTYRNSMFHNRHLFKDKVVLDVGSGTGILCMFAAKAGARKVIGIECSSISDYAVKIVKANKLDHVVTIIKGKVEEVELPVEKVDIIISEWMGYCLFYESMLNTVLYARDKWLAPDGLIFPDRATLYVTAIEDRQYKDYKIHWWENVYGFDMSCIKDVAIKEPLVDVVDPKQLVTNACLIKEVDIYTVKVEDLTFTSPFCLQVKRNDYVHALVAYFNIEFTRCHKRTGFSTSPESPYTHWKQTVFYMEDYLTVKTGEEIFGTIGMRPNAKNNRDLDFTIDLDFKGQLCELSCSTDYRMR
DOT1L, sequence (Q8TEK3 whole entry, species assumed): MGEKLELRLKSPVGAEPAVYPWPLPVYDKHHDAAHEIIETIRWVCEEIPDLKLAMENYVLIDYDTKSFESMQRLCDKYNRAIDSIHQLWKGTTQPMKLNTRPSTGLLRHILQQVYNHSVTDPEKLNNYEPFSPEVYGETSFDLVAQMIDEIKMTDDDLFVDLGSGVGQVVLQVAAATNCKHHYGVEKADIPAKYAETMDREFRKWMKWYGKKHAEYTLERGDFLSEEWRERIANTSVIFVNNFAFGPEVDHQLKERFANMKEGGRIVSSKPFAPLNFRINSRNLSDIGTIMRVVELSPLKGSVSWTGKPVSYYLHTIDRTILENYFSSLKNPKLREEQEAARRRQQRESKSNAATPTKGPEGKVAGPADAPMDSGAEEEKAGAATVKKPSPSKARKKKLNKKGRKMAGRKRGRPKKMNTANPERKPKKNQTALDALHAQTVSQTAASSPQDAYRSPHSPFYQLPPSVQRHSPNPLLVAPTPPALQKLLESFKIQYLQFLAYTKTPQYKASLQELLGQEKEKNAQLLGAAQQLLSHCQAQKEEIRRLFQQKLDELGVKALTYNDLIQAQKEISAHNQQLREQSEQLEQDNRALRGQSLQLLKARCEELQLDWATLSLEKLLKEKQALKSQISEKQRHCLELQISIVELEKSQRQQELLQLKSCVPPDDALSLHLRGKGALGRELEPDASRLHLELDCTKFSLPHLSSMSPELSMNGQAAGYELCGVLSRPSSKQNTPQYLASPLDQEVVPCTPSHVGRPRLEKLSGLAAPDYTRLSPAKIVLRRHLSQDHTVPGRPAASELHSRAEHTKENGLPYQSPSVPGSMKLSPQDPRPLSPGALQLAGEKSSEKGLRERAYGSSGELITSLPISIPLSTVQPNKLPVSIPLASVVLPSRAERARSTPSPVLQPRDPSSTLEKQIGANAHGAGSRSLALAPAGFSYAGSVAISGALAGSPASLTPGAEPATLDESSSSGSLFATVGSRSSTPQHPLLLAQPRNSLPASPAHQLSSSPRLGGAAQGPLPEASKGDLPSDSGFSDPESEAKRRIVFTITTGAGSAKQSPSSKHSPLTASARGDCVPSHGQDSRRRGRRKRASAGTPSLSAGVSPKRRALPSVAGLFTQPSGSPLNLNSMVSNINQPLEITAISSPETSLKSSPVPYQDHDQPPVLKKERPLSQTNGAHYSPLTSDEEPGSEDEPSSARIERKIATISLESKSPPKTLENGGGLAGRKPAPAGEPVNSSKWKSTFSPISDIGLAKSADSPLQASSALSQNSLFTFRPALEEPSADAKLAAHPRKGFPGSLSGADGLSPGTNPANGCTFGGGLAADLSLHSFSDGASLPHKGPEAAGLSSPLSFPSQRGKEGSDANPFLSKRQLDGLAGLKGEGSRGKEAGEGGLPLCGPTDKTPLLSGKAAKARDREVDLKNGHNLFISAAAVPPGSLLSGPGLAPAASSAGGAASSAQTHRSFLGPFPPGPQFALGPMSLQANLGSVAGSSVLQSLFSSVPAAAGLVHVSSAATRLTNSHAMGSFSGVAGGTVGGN

Take `Cc1cc(C)c(CNC(=O)c2cnn(-c3ccccc3)c2C)c(=O)[nH]1` [MC3629, N-((4,6-dimethyl-2-oxo-1,2-dihydropyridin-3-yl)methyl)-5-methyl-1-phenyl-1H-pyrazole-4-carboxamide]: the inhibition at 200 µM against PRMT1 worked out at 5.7%; against DOT1L, 3%. For the same compound, the “minimum effective time, cell viability” value in the data set on hMB-SLCs [1] is 48 h. In the data set on hMB-SLCs [1] (5 μM, 48 h), the “cell viability, combination with shEZH2 versus shEZH2 alone” value is “did not display any additive effect”. In the data set on hMB-SLCs [1] (dose- and time-dependent experiments), the “lowest useful dose, cell viability” value stood at 5 µM. Besides, the cell death result in the data set on DAOY-SLCs [2] was “induced cell death”. For the same compound, the self-renewal result with hMB-SLCs [3] and in the data set on mMB-SLCs was “significantly reduced” throughout. In addition, the “H3K27me3 levels in brain” value in data set [4] (20 μMol/Kg intra-peritoneal) is “reduced levels”. Besides, the “H3K27me3 levels in cerebellum” value in [4] (20 μMol/Kg intra-peritoneal, twice/week) is listed as “significant reduction”. For the same compound, the “ability to cross the BBB in vivo” value in [4] (inferred from reduced H3K27me3 in cerebellum and brain, 20 μMol/Kg i.p.) was “crosses the BBB”. Besides, the cell viability entry in the data set with DAOY cells [5] is given as “impaired cell viability”. The “H3K27me3 and PCNA protein levels” value with hMB-SLCs [6] was “significantly impaired”. For the same compound, in the data set on hMB-SLCs [6], the “apoptosis, level of cleaved caspase 3” value is “induced apoptosis”. The “H3K27me3 and PCNA levels” value in the data set with DAOY-SLCs [7] was “down modulated”; in the data set on DAOY cells [8], “impaired”. Besides, the Papp at 24 h in data set [9] (Pe in cm/s, pH 7.4, 24 h, room temperature, triplicate, read-out: Log Pe (converted)) is 4.68 ×10⁻⁶ cm/s. Further, in data set [9] (respect to propranolol), the “Δ Log Pe” value is listed as −0.12.
